Source: PubChem BioAssay (NCI)
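All cell lines were grown in 96-well plates and treated with compound for 48 hours. Here, GI50 denotes the concentration required for 50% inhibition of growth. TGI is the concentration that stops growth completely.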

Key:
Assay in all cases: DTP human tumour cell line panel, 48 h
PC-3 prostate = test system: PC-3 prostate
ACHN renal = test system: ACHN renal
MOLT-4 leukemia = test system: MOLT-4 leukemia
DU-145 prostate = test system: DU-145 prostate
KM12 colon = test system: KM12 colon
HL-60(TB) leukemia = test system: HL-60(TB) leukemia
RXF 393 renal = test system: RXF 393 renal
SW-620 colon = test system: SW-620 colon
SF-539 CNS = test system: SF-539 CNS
SF-268 CNS = test system: SF-268 CNS
HS 578T breast = test system: HS 578T breast
NCI-H226 lung = test system: NCI-H226 lung
MDA-MB-435 = test system: MDA-MB-435
HOP-92 NSCLC = test system: HOP-92 NSCLC
T-47D breast = test system: T-47D breast
NCI-H23 lung = test system: NCI-H23 lung
OVCAR-5 ovarian = test system: OVCAR-5 ovarian
BT-549 breast = test system: BT-549 breast
CCRF-CEM leukemia = test system: CCRF-CEM leukemia
SF-295 CNS = test system: SF-295 CNS
HCC-2998 colon = test system: HCC-2998 colon
EKVX NSCLC = test system: EKVX NSCLC
A549 NSCLC = test system: A549 NSCLC
OVCAR-8 ovarian = test system: OVCAR-8 ovarian
UACC-62 melanoma = test system: UACC-62 melanoma
U251 CNS = test system: U251 CNS
786-0 renal = test system: 786-0 renal
RPMI-8226 leukemia = test system: RPMI-8226 leukemia
A498 renal = test system: A498 renal
SK-MEL-28 melanoma = test system: SK-MEL-28 melanoma
COLO 205 colon = test system: COLO 205 colon
SK-MEL-5 melanoma = test system: SK-MEL-5 melanoma
HT29 colon = test system: HT29 colon
SK-MEL-2 melanoma = test system: SK-MEL-2 melanoma
MALME-3M melanoma = test system: MALME-3M melanoma
SK-OV-3 ovarian = test system: SK-OV-3 ovarian
HOP-62 NSCLC = test system: HOP-62 NSCLC
MDA-MB-468 breast = test system: MDA-MB-468 breast
MCF7 breast = test system: MCF7 breast
UO-31 renal = test system: UO-31 renal
HCT-116 colon = test system: HCT-116 colon
HCT-15 colon = test system: HCT-15 colon
SNB-75 CNS = test system: SNB-75 CNS
SR leukemia = test system: SR leukemia
CAKI-1 renal = test system: CAKI-1 renal
IGROV1 ovarian = test system: IGROV1 ovarian
SNB-19 CNS = test system: SNB-19 CNS
TK-10 renal = test system: TK-10 renal
K-562 leukemia = test system: K-562 leukemia
SN12C renal = test system: SN12C renal
NCI-H522 lung = test system: NCI-H522 lung
UACC-257 melanoma = test system: UACC-257 melanoma
MDA-MB-231 breast = test system: MDA-MB-231 breast
OVCAR-3 ovarian = test system: OVCAR-3 ovarian
OVCAR-4 ovarian = test system: OVCAR-4 ovarian
M14 melanoma = test system: M14 melanoma
NCI-H460 lung = test system: NCI-H460 lung

For N#Cc1c(-c2ccc(Cl)cc2)nc2n[nH]c(-c3ccc(Cl)cc3)c2c1-c1ccc(C(F)(F)F)cc1, which GI50 (PC-3 prostate) is on record?
The GI50 was 2.25 µM.

What about the TGI (PC-3 prostate) of the same compound?
Its TGI is 9.31 µM.

What about the GI50 (ACHN renal) of the same compound?
Its GI50 is 2.85 µM.

What about the TGI (ACHN renal) of the same compound?
The TGI was 9.97 µM.

What about the GI50 (MOLT-4 leukemia) of the same compound?
Its GI50 is 1.72 µM.

What about the TGI (MOLT-4 leukemia) of the same compound?
Its TGI is 6.12 µM.

And the GI50 (DU-145 prostate)?
The GI50 was 3.6 µM.

And the TGI (DU-145 prostate)?
Its TGI is 15.9 µM.

What about the GI50 (KM12 colon) of the same compound?
Its GI50 is 2.49 µM.

What about the TGI (KM12 colon) of the same compound?
The TGI was 8.32 µM.

What about the GI50 (HL-60(TB) leukemia) of the same compound?
The GI50 was 1.79 µM.

What about the TGI (HL-60(TB) leukemia) of the same compound?
The TGI was 4.79 µM.

What about the GI50 (RXF 393 renal) of the same compound?
The GI50 was 2.64 µM.

What about the TGI (RXF 393 renal) of the same compound?
Its TGI is 9.54 µM.

And the GI50 (SW-620 colon)?
The GI50 was 2.76 µM.

And the TGI (SW-620 colon)?
The TGI was 10.8 µM.

What about the GI50 (SF-539 CNS) of the same compound?
Its GI50 is 1.85 µM.

And the TGI (SF-539 CNS)?
Its TGI is 3.76 µM.

What about the GI50 (SF-268 CNS) of the same compound?
The GI50 was 2.92 µM.

And the TGI (SF-268 CNS)?
The TGI was 11.5 µM.

And the GI50 (HS 578T breast)?
The GI50 was 2.23 µM.

What about the TGI (HS 578T breast) of the same compound?
The TGI was 7.18 µM.

And the GI50 (NCI-H226 lung)?
The GI50 was 2.37 µM.

And the TGI (NCI-H226 lung)?
The TGI was 8.97 µM.

What about the GI50 (MDA-MB-435) of the same compound?
Its GI50 is 2.1 µM.

And the TGI (MDA-MB-435)?
Its TGI is 4.86 µM.

What about the GI50 (HOP-92 NSCLC) of the same compound?
Its GI50 is 1.57 µM.

And the TGI (HOP-92 NSCLC)?
The TGI was 4.37 µM.

And the GI50 (T-47D breast)?
The GI50 was 2.53 µM.

And the TGI (T-47D breast)?
The TGI was 8.38 µM.

What about the GI50 (NCI-H23 lung) of the same compound?
Its GI50 is 2.24 µM.

What about the TGI (NCI-H23 lung) of the same compound?
Its TGI is 7.68 µM.

What about the GI50 (OVCAR-5 ovarian) of the same compound?
Its GI50 is 2.16 µM.

What about the TGI (OVCAR-5 ovarian) of the same compound?
Its TGI is 5.22 µM.

What about the GI50 (BT-549 breast) of the same compound?
The GI50 was 2.17 µM.

And the TGI (BT-549 breast)?
The TGI was 4.78 µM.

And the GI50 (CCRF-CEM leukemia)?
Its GI50 is 2.18 µM.

What about the TGI (CCRF-CEM leukemia) of the same compound?
The TGI was 6.57 µM.

And the GI50 (SF-295 CNS)?
The GI50 was 2.62 µM.

And the TGI (SF-295 CNS)?
The TGI was 8.3 µM.

What about the GI50 (HCC-2998 colon) of the same compound?
The GI50 was 2.29 µM.

And the TGI (HCC-2998 colon)?
The TGI was 5.36 µM.

And the GI50 (EKVX NSCLC)?
The GI50 was 2.71 µM.

And the TGI (EKVX NSCLC)?
Its TGI is 11.4 µM.

And the GI50 (A549 NSCLC)?
The GI50 was 3.45 µM.

And the TGI (A549 NSCLC)?
Its TGI is 12 µM.

And the GI50 (OVCAR-8 ovarian)?
The GI50 was 3.23 µM.

What about the TGI (OVCAR-8 ovarian) of the same compound?
Its TGI is 12.5 µM.

What about the GI50 (UACC-62 melanoma) of the same compound?
Its GI50 is 1.87 µM.

And the TGI (UACC-62 melanoma)?
The TGI was 5.57 µM.

What about the GI50 (U251 CNS) of the same compound?
The GI50 was 3.03 µM.

And the TGI (U251 CNS)?
The TGI was 11.2 µM.

What about the GI50 (786-0 renal) of the same compound?
Its GI50 is 2.57 µM.

And the TGI (786-0 renal)?
The TGI was 7.55 µM.

What about the GI50 (RPMI-8226 leukemia) of the same compound?
The GI50 was 1.93 µM.

And the TGI (RPMI-8226 leukemia)?
The TGI was 6.27 µM.

What about the GI50 (A498 renal) of the same compound?
Its GI50 is 3.1 µM.

And the TGI (A498 renal)?
Its TGI is 8.71 µM.

What about the GI50 (SK-MEL-28 melanoma) of the same compound?
Its GI50 is 2.68 µM.

What about the TGI (SK-MEL-28 melanoma) of the same compound?
Its TGI is 8.7 µM.

And the GI50 (COLO 205 colon)?
The GI50 was 1.71 µM.

What about the TGI (COLO 205 colon) of the same compound?
Its TGI is 3.24 µM.

What about the GI50 (SK-MEL-5 melanoma) of the same compound?
Its GI50 is 1.92 µM.

What about the TGI (SK-MEL-5 melanoma) of the same compound?
The TGI was 3.79 µM.

What about the GI50 (HT29 colon) of the same compound?
Its GI50 is 2.77 µM.

What about the TGI (HT29 colon) of the same compound?
The TGI was 10.9 µM.

What about the GI50 (SK-MEL-2 melanoma) of the same compound?
The GI50 was 1.72 µM.

What about the TGI (SK-MEL-2 melanoma) of the same compound?
Its TGI is 3.26 µM.

And the GI50 (MALME-3M melanoma)?
The GI50 was 1.98 µM.

And the TGI (MALME-3M melanoma)?
Its TGI is 4.86 µM.

And the GI50 (SK-OV-3 ovarian)?
The GI50 was 3.03 µM.

What about the TGI (SK-OV-3 ovarian) of the same compound?
Its TGI is 10.2 µM.

What about the GI50 (HOP-62 NSCLC) of the same compound?
Its GI50 is 3.06 µM.

And the TGI (HOP-62 NSCLC)?
The TGI was 9.84 µM.

What about the GI50 (MDA-MB-468 breast) of the same compound?
Its GI50 is 2.59 µM.

What about the TGI (MDA-MB-468 breast) of the same compound?
Its TGI is 9.55 µM.

And the GI50 (MCF7 breast)?
Its GI50 is 2.43 µM.

And the TGI (MCF7 breast)?
The TGI was 10.8 µM.

And the GI50 (UO-31 renal)?
Its GI50 is 2.1 µM.

What about the TGI (UO-31 renal) of the same compound?
Its TGI is 8.61 µM.

And the GI50 (HCT-116 colon)?
The GI50 was 1.61 µM.

And the TGI (HCT-116 colon)?
Its TGI is 3.74 µM.

What about the GI50 (HCT-15 colon) of the same compound?
The GI50 was 2.57 µM.

What about the TGI (HCT-15 colon) of the same compound?
The TGI was 10.4 µM.

What about the GI50 (SNB-75 CNS) of the same compound?
Its GI50 is 1.75 µM.

What about the TGI (SNB-75 CNS) of the same compound?
The TGI was 6.59 µM.

What about the GI50 (SR leukemia) of the same compound?
Its GI50 is 1.69 µM.

What about the TGI (SR leukemia) of the same compound?
Its TGI is 4.42 µM.

And the GI50 (CAKI-1 renal)?
Its GI50 is 2 µM.

What about the TGI (CAKI-1 renal) of the same compound?
Its TGI is 7.2 µM.

And the GI50 (IGROV1 ovarian)?
The GI50 was 1.92 µM.

And the TGI (IGROV1 ovarian)?
Its TGI is 6.49 µM.

What about the GI50 (SNB-19 CNS) of the same compound?
The GI50 was 3.38 µM.

And the TGI (SNB-19 CNS)?
Its TGI is 14.7 µM.

What about the GI50 (TK-10 renal) of the same compound?
The GI50 was 3.99 µM.

What about the TGI (TK-10 renal) of the same compound?
Its TGI is 15.6 µM.

And the GI50 (K-562 leukemia)?
Its GI50 is 2.09 µM.

What about the TGI (K-562 leukemia) of the same compound?
Its TGI is 5.91 µM.

What about the GI50 (SN12C renal) of the same compound?
The GI50 was 2.59 µM.

What about the TGI (SN12C renal) of the same compound?
The TGI was 8.35 µM.

And the GI50 (NCI-H522 lung)?
The GI50 was 2.03 µM.

What about the TGI (NCI-H522 lung) of the same compound?
Its TGI is 5.68 µM.

What about the GI50 (UACC-257 melanoma) of the same compound?
The GI50 was 2.72 µM.

And the TGI (UACC-257 melanoma)?
Its TGI is 8 µM.

And the GI50 (MDA-MB-231 breast)?
Its GI50 is 2.12 µM.

What about the TGI (MDA-MB-231 breast) of the same compound?
The TGI was 4.64 µM.

And the GI50 (OVCAR-3 ovarian)?
Its GI50 is 2.19 µM.

And the TGI (OVCAR-3 ovarian)?
The TGI was 5.07 µM.

What about the GI50 (OVCAR-4 ovarian) of the same compound?
The GI50 was 2.5 µM.

What about the TGI (OVCAR-4 ovarian) of the same compound?
Its TGI is 8.38 µM.

And the GI50 (M14 melanoma)?
Its GI50 is 2.17 µM.

What about the TGI (M14 melanoma) of the same compound?
Its TGI is 5.53 µM.

And the GI50 (NCI-H460 lung)?
The GI50 was 2.08 µM.

And the TGI (NCI-H460 lung)?
The TGI was 4.57 µM.
